In article PMC11294694, “Dissecting the abilities of murine Siglecs to interact with gangliosides [drawing 1]” (The Journal of Biological Chemistry, 2024):

Legend:
[1] = molecular target: T1, hSiglec-1 (Homo sapiens, UniProt Q9BZZ2); test: direct ESI native mass spectrometry titration; assay type: binding
T1 construct: gene SIGLEC1; monomeric Siglec-1 fragment from CHO Lec1 cells

[2] = molecular target: T2, mSiglec-1 (Mus musculus, UniProt Q62230); test: direct ESI native mass spectrometry titration; assay type: binding
T2 construct: gene Siglec1; monomeric Siglec-1 fragment from CHO Lec1 cells

[3] = molecular target: T2, mSiglec-1; test: direct ESI native mass spectrometry titration (no binding in liposome bead assay or ELISA)

T1 sequence (Q9BZZ2 20-136 limits assumed): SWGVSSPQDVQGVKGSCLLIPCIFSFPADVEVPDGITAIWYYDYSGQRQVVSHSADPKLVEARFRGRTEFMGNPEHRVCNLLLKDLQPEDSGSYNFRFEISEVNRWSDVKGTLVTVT
T2 sequence (Q62230 20-136 limits assumed): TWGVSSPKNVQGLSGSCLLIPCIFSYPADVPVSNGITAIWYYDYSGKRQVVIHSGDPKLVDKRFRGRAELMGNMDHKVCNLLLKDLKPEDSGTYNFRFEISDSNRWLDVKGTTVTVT

Row | Kd [1] [mM] | Kd [2] [mM] | Kd [3] [mM] | Substance
1 | 0.89 | 1.2 |  | GM1b oligosaccharide
2 | 1.5 |  | 2 | GM1a oligosaccharide
